The text below walks through data of patent US12357601B2, “Composition for inhibiting growth of bacterium having menaquinone synthesis pathway through futalosine or futalosine derivative” (NOSTER INC., priority 2017, dated 2025).

In test [1] the test system is Helicobacter pylori TK1029 strain. The test is described as follows: Proliferation inhibitory effect (in vitro) by ED50 measurement, viable count. In kind it is cell-based. How it is done:
Helicobacter pylori TK1029 strain (clinical isolate) was cultured in Brucella broth containing 10% FCS and 1×10^6 CFU of bacteria were respectively added to 3 mL of Brain-Heart Infusion Broth (BHI) media (previously added with free fatty acid (stearic acid, oleic acid, linoleic acid, ricinoleic acid, HYA) at 0, 0.5, 5, 50, 500 μg/mL) containing 2% FCS in a 6-well plate. Shaking culture was performed under conditions of temperature 37° C., humidity 100%, microaerobic (5% 02, 10% CO2, 85% N2), the culture medium (0.1 mL) from each well was applied to NISSUI plate, Helicobacter agar medium 15 hr and 25 hr later, and the number of colonies formed after microaerobic culture for 3 days was counted.

The test system of test [2] is Helicobacter suis TKY strain or SNTW101 strain. The test can be described thus: Proliferation inhibitory effect (in vivo) of HYA on Helicobacter suis, real-time PCR quantification, 2 weeks after infection. The conditions noted are these: 200 μM in water from one week before infection; 2 weeks later. More on the design: species or system C57BL/6 female mouse. On the procedure: A 5-week-old C57BL/6 female mouse was orally infected 3 times with Helicobacter pylori SS1 strain or TN2GF4 strain (1-5×10^8 CFU) every other day and dissected at 2 weeks from the final infection day, and the number of bacteria in the gastric mucosa was counted. Water added with HYA or linoleic acid (200 μM) was given to the mice from 1 week before infection (FIG. 4-1 A: SS1 strain, FIG. 4-2 B: TN2GF4 strain). A 5-week-old C57BL/6 female mouse was orally infected only once with a stomach suspension of Helicobacter suis TKY strain or SNTW101 strain-infected mouse and dissected 2 weeks later, and the number of bacteria in the gastric mucosa was counted. Water added with HYA (200 μM) was given to the mouse from one week before the infection (FIG. 4-3 C). […]
DNA was prepared from a part of the stomach tissue by using DNeasy Blood & Tissue Kit (Qiagen) and real-time PCR (model: CFX96 (Bio-Rad)) was performed. As the primer for Helicobacter suis quantification, the following was used by reference to Diagn. […]
The following were used as the primers for β-actin quantification of the mouse by reference to J. Clin. Microbiol. […]
For quantification by real-time PCR, iQ™ SYBR Green Supermix was used. […]
Thereafter, the temperature was increased by 0.5° C. every seconds from 65° C. to 95° C. and the fluorescence was measured. […]
(In general: Quantitative PCR measures a nucleic acid by following its amplification.)

Test [3] concerns Campylobacter coli ATCC33559 strain. The test can be described thus: Proliferation inhibitory effect (in vitro) on Campylobacter coli, absorbance and colony count. In kind it is cell-based. The conditions noted are these: 100, 200, 400 μM, 24 hr; concentration dependent; strong compared to linoleic acid.
The subject of test [4] is Helicobacter pylori SS1 strain or TN2GF4 strain. The test can be described thus: Proliferation inhibitory effect (in vivo) of HYA on Helicobacter pylori, number of bacteria in gastric mucosa. Also noted: species or system C57BL/6 female mouse. Conditions: 200 μM in water from 1 week before infection; 2 weeks from final infection. How it is done: A 5-week-old C57BL/6 female mouse was orally infected 3 times with Helicobacter pylori SS1 strain or TN2GF4 strain (1-5×10^8 CFU) every other day and dissected at 2 weeks from the final infection day, and the number of bacteria in the gastric mucosa was counted. Water added with HYA or linoleic acid (200 μM) was given to the mice from 1 week before infection (FIG. 4-1 A: SS1 strain, FIG. 4-2 B: TN2GF4 strain). A 5-week-old C57BL/6 female mouse was orally infected only once with a stomach suspension of Helicobacter suis TKY strain or SNTW101 strain-infected mouse and dissected 2 weeks later, and the number of bacteria in the gastric mucosa was counted. Water added with HYA (200 μM) was given to the mouse from one week before the infection (FIG. 4-3 C). […] The measurement of the number of Helicobacter suis bacteria in the stomach of the infected mouse was performed as follows.

Test [5] has as its system Helicobacter pylori SS1 strain, TN2GF4 strain, ATCC43579 strain, NCTC11637 strain, TY281 strain, TY1345 strain. The test can be described thus: Proliferation inhibitory effect (in vitro), static culture 3 days, colony count. The test is classed as cell-based. Conditions: fatty acid 200 μM or 1000 μM, 3 days; six strains; compared with linoleic acid. How it is done:
Helicobacter pylori SS1 strain, TN2GF4 strain, ATCC43579 strain, NCTC11637 strain, TY281 strain, TY1345 strain were each inoculated to a 6-well plate containing 3 mL of a liquid medium (Brucella broth added with 10% FCS), and fatty acid (200 μM or 1000 μM) and menaquinone (MK-4) 100 μg/mL were added. After static culture for 3 days at temperature 37° C., microaerobic conditions (5% 02, 10% 002, 85% N2), the culture medium was applied on a Helicobacter agar plate, cultured for 3 days and the resulting colonies were counted (FIG. 1-1 A: SS1 strain, FIG. 1-2 B: TN2GF4 strain, FIG. 1-3 C: ATCC43579 strain, FIG. 1-4 D: NCTC11637 strain, FIG. 1-5 E: TY281 strain, FIG. 1-6 F: TY1345 strain. Item C: control (no addition), Item 1: HYA addition, Item 2: HYA and menaquinone addition, Item 3: linoleic acid addition, Item 4: linoleic acid and menaquinone addition).

Converted amounts (≈) assume the structure as drawn.

Turning to `CCCCC/C=C\CC(O)CCCCCCCCC(=O)O` (stereo not drawn) [HYA, 10-hydroxy-cis-12-octadecenoic acid], the “ED50 value times lower than that of ricinoleic acid” value in test [1] (15 hr after culturing) is “about 10 times”. Besides, in test [1] (15 hr shaking culture, BHI 2% FCS, viable count), the “ED50 value, 15 hr later” value is 0.5 µg/mL (≈ 1.68 µM). Also, in test [1] (25 hr after culturing), the “ED50 values compared with the other fatty acids” value is on record as “remarkably lower than or the same level as”. The “ED50 value, 25 hr later” value in test [1] (25 hr shaking culture, BHI 2% FCS, viable count) worked out at 0.5 µg/mL (≈ 1.68 µM). The “proliferation of Helicobacter suis TKY strain, SNTW101 strain (number of bacteria in gastric mucosa)” value in test [2] is “inhibited proliferation”. Moreover, in test [3], the “proliferation of Campylobacter coli ATCC33559 strain” value is “inhibited proliferation”. For the same molecule, the “proliferation of Helicobacter pylori SS1 strain, TN2GF4 strain (number of bacteria in gastric mucosa)” value in test [4] is given as “inhibited proliferation”. Moreover, the “proliferation of Helicobacter pylori (colony count)” value in test [5] was “suppressed proliferation”.
